Measurements published in patent US6914045B2, “Glycopeptide antibiotics” (Wyeth Holdings Corporation, priority 2001, dated 2005).
Converted amounts (≈) assume the structure as drawn.

Tests used:
Experiment in all cases: in vitro antibacterial evaluation, MIC by broth dilution
Assay type in all cases: cell-based
Enterococcus sp. = conditions: broth dilution, 18 hours at 35° C.
How it was run: (§1)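 Test organisms, which included recent clinical isolates resistant to methicillin, penicillin and/or vancomycin, were inoculated at 5×10^5 CFU/mL into Muller-Hinton II […] containing antibiotic at 64-0.06 μg/mL. Minimum inhibitory concentrations were then read as the lowest level inhibiting growth.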

Staphylococcus sp. = conditions: broth dilution, 18 hours at 35° C.
How it was run: as §1

Streptococcus sp. = conditions: broth dilution, 18 hours at 35° C.
How it was run: as §1

Escherichia coli = conditions: 18 hours at 35° C.

- MIC Enterococcus avium (GC 4558) (Enterococcus sp.): 4 µg/mL (≈ 2.63 µM)
- MIC Enterococcus faecalis (ATCC 29212) (Enterococcus sp.): 4 µg/mL (≈ 2.63 µM)
- MIC Enterococcus faecalis (GC 2242) (Enterococcus sp.): 4 µg/mL (≈ 2.63 µM)
- MIC Enterococcus faecalis (GC 2691) (Enterococcus sp.): 4 µg/mL (≈ 2.63 µM)
- MIC Enterococcus faecalis (GC 3059) (Enterococcus sp.): 4 µg/mL (≈ 2.63 µM)
- MIC Enterococcus faecalis (GC 4552) (Enterococcus sp.): 4 µg/mL (≈ 2.63 µM)
- MIC Enterococcus faecalis (GC 4553) (Enterococcus sp.): 4 µg/mL (≈ 2.63 µM)
- MIC Enterococcus faecalis (GC 4554) (Enterococcus sp.): 4 µg/mL (≈ 2.63 µM)
- MIC Enterococcus faecalis (GC 6189) (Enterococcus sp.): 4 µg/mL (≈ 2.63 µM)
- MIC Enterococcus faecium (GC 2243) (Enterococcus sp.): 4 µg/mL (≈ 2.63 µM)
- MIC Enterococcus faecium (GC 4556) (Enterococcus sp.): 4 µg/mL (≈ 2.63 µM)
- MIC Enterococcus faecium (GC 4557) (Enterococcus sp.): 2 µg/mL (≈ 1.31 µM)
- MIC Enterococcus faecalis (ATCC 29212) (Enterococcus sp.; strain ATCC 29212): 4 µg/mL (≈ 2.63 µM)
- MIC Enterococcus faecium (GC 2243) (Enterococcus sp.; strain GC 2243): 4 µg/mL (≈ 2.63 µM)
- MIC Enterococcus faecalis (GC 4552) (Enterococcus sp.; strain GC 4552): 4 µg/mL (≈ 2.63 µM)
- MIC Enterococcus faecalis (GC 4553) (Enterococcus sp.; strain GC 4553): 4 µg/mL (≈ 2.63 µM)
- MIC Enterococcus faecalis (GC 4554) (Enterococcus sp.; strain GC 4554): 4 µg/mL (≈ 2.63 µM)
- MIC Enterococcus faecium (GC 4556) (Enterococcus sp.; strain GC 4556): 4 µg/mL (≈ 2.63 µM)
- MIC Enterococcus faecium (GC 4557) (Enterococcus sp.; strain GC 4557): 2 µg/mL (≈ 1.31 µM)
- MIC Enterococcus avium (GC 4558) (Enterococcus sp.; strain GC 4558): 4 µg/mL (≈ 2.63 µM)
- MIC Enterococcus faecalis (GC 6189) (Enterococcus sp.; strain GC 6189): 4 µg/mL (≈ 2.63 µM)
- MIC Enterococcus faecalis (GC 2242) (Enterococcus sp.; inoculum 5×10^5 CFU/mL, strain GC 2242): 4 µg/mL (≈ 2.63 µM)
- MIC Enterococcus faecalis (GC 2691) (Enterococcus sp.; inoculum 5×10^5 CFU/mL, strain GC 2691): 4 µg/mL (≈ 2.63 µM)
- MIC Enterococcus faecalis (GC 3059) (Enterococcus sp.; inoculum 5×10^5 CFU/mL, strain GC 3059): 4 µg/mL (≈ 2.63 µM)
- MIC Coagulase Negative Staphylococcus (GC 4547) (Staphylococcus sp.): 2 µg/mL (≈ 1.31 µM)
- MIC Coagulase Negative Staphylococcus (GC 4548) (Staphylococcus sp.): 1 µg/mL (≈ 0.657 µM)
- MIC Coagulase Negative Staphylococcus (GC 4549) (Staphylococcus sp.): 1 µg/mL (≈ 0.657 µM)
- MIC Coagulase Negative Staphylococcus (GC 4551) (Staphylococcus sp.): 2 µg/mL (≈ 1.31 µM)
- MIC Coagulase Negative Staphylococcus (GC 6257) (Staphylococcus sp.): 1 µg/mL (≈ 0.657 µM)
- MIC Staphylococcus aureus (ATCC 29213) (Staphylococcus sp.): 2 µg/mL (≈ 1.31 µM)
- MIC Staphylococcus aureus (GC 1131) (Staphylococcus sp.): 2 µg/mL (≈ 1.31 µM)
- MIC Staphylococcus aureus (GC 3051) (Staphylococcus sp.): 1 µg/mL (≈ 0.657 µM)
- MIC Staphylococcus aureus (GC 3053) (Staphylococcus sp.): 2 µg/mL (≈ 1.31 µM)
- MIC Staphylococcus aureus (GC 4541) (Staphylococcus sp.): 4 µg/mL (≈ 2.63 µM)
- MIC Staphylococcus aureus (GC 4542) (Staphylococcus sp.): 2 µg/mL (≈ 1.31 µM)
- MIC Staphylococcus aureus (GC 4544) (Staphylococcus sp.): 2 µg/mL (≈ 1.31 µM)
- MIC Staphylococcus aureus (GC 4545) (Staphylococcus sp.): 2 µg/mL (≈ 1.31 µM)
- MIC Staphylococcus aureus-SMITH (GC 4543) (Staphylococcus sp.): 2 µg/mL (≈ 1.31 µM)
- MIC Staphylococcus aureus (ATCC 29213) (Staphylococcus sp.; strain ATCC 29213): 2 µg/mL (≈ 1.31 µM)
- MIC Staphylococcus aureus (GC 1131) (Staphylococcus sp.; strain GC 1131): 2 µg/mL (≈ 1.31 µM)
- MIC Staphylococcus aureus (GC 3051) (Staphylococcus sp.; strain GC 3051): 1 µg/mL (≈ 0.657 µM)
- MIC Staphylococcus aureus (GC 3053) (Staphylococcus sp.; strain GC 3053): 2 µg/mL (≈ 1.31 µM)
- MIC Staphylococcus aureus (GC 4541) (Staphylococcus sp.; strain GC 4541): 4 µg/mL (≈ 2.63 µM)
- MIC Staphylococcus aureus (GC 4542) (Staphylococcus sp.; strain GC 4542): 2 µg/mL (≈ 1.31 µM)
- MIC Staphylococcus aureus-SMITH (GC 4543) (Staphylococcus sp.; strain GC 4543): 2 µg/mL (≈ 1.31 µM)
- MIC Staphylococcus aureus (GC 4544) (Staphylococcus sp.; strain GC 4544): 2 µg/mL (≈ 1.31 µM)
- MIC Staphylococcus aureus (GC 4545) (Staphylococcus sp.; strain GC 4545): 2 µg/mL (≈ 1.31 µM)
- MIC Coagulase Negative Staphylococcus (GC 4547) (Staphylococcus sp.; strain GC 4547): 2 µg/mL (≈ 1.31 µM)
- MIC Coagulase Negative Staphylococcus (GC 4548) (Staphylococcus sp.; strain GC 4548): 1 µg/mL (≈ 0.657 µM)
- MIC Coagulase Negative Staphylococcus (GC 4549) (Staphylococcus sp.; strain GC 4549): 1 µg/mL (≈ 0.657 µM)
- MIC Coagulase Negative Staphylococcus (GC 4551) (Staphylococcus sp.; strain GC 4551): 2 µg/mL (≈ 1.31 µM)
- MIC Coagulase Negative Staphylococcus (GC 6257) (Staphylococcus sp.; strain GC 6257): 1 µg/mL (≈ 0.657 µM)
- MIC Streptococcus agalactiae (GC 4564) (Streptococcus sp.): 0.25 µg/mL (≈ 0.164 µM)
- MIC Streptococcus pneumoniae (ATCC 6301) (Streptococcus sp.): <0.06 µg/mL
- MIC Streptococcus pneumoniae (GC 1894) (Streptococcus sp.): <0.06 µg/mL
- MIC Streptococcus pneumoniae (GC 4565) (Streptococcus sp.): <0.06 µg/mL
- MIC Streptococcus pyogenes (GC 4563) (Streptococcus sp.): 0.25 µg/mL (≈ 0.164 µM)
- MIC Streptococcus pneumoniae (ATCC 6301) (Streptococcus sp.; inoculum 5×10^5 CFU/mL, strain ATCC 6301): <0.06 µg/mL
- MIC Streptococcus pneumoniae (GC 1894) (Streptococcus sp.; inoculum 5×10^5 CFU/mL, strain GC 1894): <0.06 µg/mL
- MIC Streptococcus pyogenes (GC 4563) (Streptococcus sp.; inoculum 5×10^5 CFU/mL, strain GC 4563): 0.25 µg/mL (≈ 0.164 µM)
- MIC Streptococcus agalactiae (GC 4564) (Streptococcus sp.; inoculum 5×10^5 CFU/mL, strain GC 4564): 0.25 µg/mL (≈ 0.164 µM)
- MIC Streptococcus pneumoniae (GC 4565) (Streptococcus sp.; inoculum 5×10^5 CFU/mL, strain GC 4565): <0.06 µg/mL
- MIC Escherichia coli (ATCC 25922) (Escherichia coli): >64 µg/mL
- MIC Escherichia coli (GC 4559) (Escherichia coli): >64 µg/mL
- MIC Escherichia coli (GC 4560) (Escherichia coli): 1 µg/mL (≈ 0.657 µM)
SMILES: COc1ccc(COCC2OC(OC3C(CO)OC(Oc4ccc(CC5NC(=O)C(C(C)c6ccccc6)NC(=O)CNC(=O)C(CO)NC(=O)C(C(O)C6CNC(=N)N6C6OC(CO)C(O)C(O)C6O)NC(=O)C(C(O)C6CNC(=N)N6)NC5=O)cc4)C(O)C3O)C(O)C(O)C2O)cc1OCc1ccccc1 (stereo not shown) [Example 239]
- MIC Staphylococcus haemolyticus (GC 4546) (Staphylococcus sp.): 1 µg/mL (≈ 0.657 µM)
- MIC Staphylococcus haemolyticus (GC 4546) (Staphylococcus sp.; strain GC 4546): 1 µg/mL (≈ 0.657 µM)
